{
  "source": "patent US20050019854A1",
  "about": "“Novel method for screening inhibitors of the linkage between the neuronal nitric oxide synthase associated protein and the protein inhibiting neuronal nitric oxide synthase” (priority 2001, published 2005)",
  "molecules": {"B1": {"name": "mutant nNOS peptide represented by sequence SEQ ID NO: 3 (Lys-Asp-Thr-Gly-Ile-Gln-Val-Asp-Trp-Asp) (peptide)", "peptide": "KDTGIQVDWD", "notes": "Synthetic 10-mer; It differs from the normal peptide by Arg to Trp at position 9"}, "B2": {"name": "normal (non-mutant) nNOS peptide Lys Asp Thr Gly Ile Gln Val Asp Arg Asp (nNOS amino acids 229-238) (peptide)", "peptide": "KDTGIQVDRD", "notes": "Made by Fmoc solid phase synthesis; also called normal peptide; normal nNOS peptide"}},
  "key": {"[1]": {"test_system": "islets of Langerhans of Zucker (fa/fa) rats", "assay": "Glucose-induced insulin secretion in isolated islets of Zucker (fa/fa) rats (Example 4)", "format": "cell-based, rat", "settings": "2 g/L glucose; for reduction of the insulin response: 1 hour", "procedure": "The islets of Langerhans of Zucker (fa/fa) rats are isolated using the collagenase digestion technique of Lacy et al. (Diabetes, 1967). After isolation, the islets are stabilized in Krebs-Ringer containing 0.75 g/L glucose for 45 minutes at 37° C. Groups of three islets are then incubated in Krebs-Ringer with 2 g/L glucose containing increasing concentrations of the molecule C24H18N4O5S (20-100 μM) for 1 hour at 37° C. The liquid supernatant is then recovered and insulin secretion measured by radioimmunology (see FIG. 8)."}, "[2]": {"target": "T1, binding of the PIN to the nNOS (Rattus norvegicus, UniProt P63170)", "T1 construct": "catalogue number not given; host or cells: PIN: E. coli BL21 (DE3)", "T1 sequence (P63170 whole entry)": "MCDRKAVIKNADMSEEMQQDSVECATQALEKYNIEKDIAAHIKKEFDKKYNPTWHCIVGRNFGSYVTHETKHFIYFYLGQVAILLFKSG", "assay": "ELISA: inhibition of the binding of GST-PIN to immobilized nNOS (Example 2, first method)", "settings": "peptide 50 μg/ml"}, "[3]": {"target": "T1, binding of the PIN to the nNOS", "assay": "Surface plasmon resonance analysis of inhibition of PIN binding to immobilized nNOS (Example 3)", "settings": "for inhibition of the binding of the PIN to the nNOS: SPR"}, "PIN": {"target": "T2, PIN (Rattus norvegicus, UniProt P63170)", "T2 construct": "GST (N, cleaved yes); made in house; host or cells: E. coli BL21 (DE3), vector pGEX-2T", "T2 sequence (P63170 whole entry)": "as above", "assay": "Surface plasmon resonance analysis of PIN binding to immobilized nNOS peptides (Example 1)"}, "[4]": {"target": "T3, protein inhibitor of neuronal nitric oxide synthase (PIN), produced by thrombin digestion of GST-PIN (rat, UniProt P63170 1-89)", "T3 construct": "Released from GST-PIN (vector pGEX-2T) by thrombin digestion; also called PIN protein", "T3 sequence (P63170 whole entry)": "as above", "assay": "SPR (BIAcore 2000), peptide immobilized, reference is the normal nNOS peptide"}, "[5]": {"target": "T4, GST-PIN (PIN with a glutathione S-transferase tag in the N-terminal position) (rat, UniProt P63170 1-89)", "T4 construct": "Produced in E. coli BL21(DE3) and purified on glutathione sepharose; The thrombin linker between GST and PIN is not described; also called GST-tagged PIN; not shown: Glutathione S-transferase tag of vector pGEX-2T (Pharmacia), N-terminal", "T4 sequence (P63170 whole entry)": "as above", "assay": "competition ELISA, GST-PIN preincubated with peptide, nNOS immobilized"}, "[6]": {"target": "T4, GST-PIN (PIN with a glutathione …)", "assay": "competition ELISA, GST-PIN preincubated with 50 µg/ml peptide, nNOS immobilized"}, "[7]": {"target": "T3, protein inhibitor of neuronal nitric …", "assay": "SPR competition, PIN preincubated with peptide, nNOS immobilized"}},
  "note": "Ends that are not written are not given here.",
  "data": [
    {"molecule": "CCOc1ccc(N2C(=O)NC(=O)/C(=C\\c3ccc(Sc4nc5ccccc5[nH]4)o3)C2=O)cc1", "note": "[C24H18N4O5S]", "values": [
      {"measurement": "concentration from which insulin secretion is blocked in a dose-dependant fashion", "setting": "[1]; tested 20-100 μM", "value": "≥ 50", "unit": "µM"},
      {"measurement": "reduction of the insulin response", "setting": "[1]; molecule 50 μM", "value": 36, "unit": "%"},
      {"measurement": "reduction of the insulin response", "setting": "[1]; molecule 100 μM", "value": 79, "unit": "%"}
    ]},
    {"molecule": "CC[C@H](C)[C@H](N)C(=O)N[C@@H](CC(=O)O)C(=O)N[C@H](C(=O)NCC(=O)N[C@H](C(=O)N[C@@H](CCC(N)=O)C(=O)N[C@H](C(=O)N[C@@H](CC(=O)O)C(=O)N[C@@H](Cc1c[nH]c2ccccc12)C(=O)N[C@@H](CC(=O)O)C(=O)O)C(C)C)[C@@H](C)CC)C(C)C", "note": "[SEQ ID NO: 4]", "values": [
      {"measurement": "inhibition of the binding of the PIN to the nNOS", "setting": "[2]", "value": "≤ 78", "unit": "%"},
      {"measurement": "inhibition of the binding of the PIN to the nNOS", "setting": "[3]; peptide 1 μg/ml", "value": 75, "unit": "%"},
      {"measurement": "inhibition of the binding of the PIN to the nNOS", "setting": "[3]; peptide 10 μg/ml", "value": 98, "unit": "%"}
    ]},
    {"molecule": "KDTGIQVDWD [SEQ ID NO: 3]", "values": [
      {"measurement": "Ka (association constant) of PIN for immobilized peptide", "setting": "PIN; BIAcore, PIN 5-40 μg/ml, global analysis", "value": "1.86×10^8"},
      {"measurement": "Kd", "setting": "PIN; BIAcore, PIN 5-40 μg/ml, global analysis, read-out: Kd (dissociation constant) of PIN for immobilized peptide", "value": 5.38, "unit": "nM"},
      {"measurement": "affinity of the PIN protein for the mutant peptide relative to the normal peptide", "setting": "PIN; SPR, ratio vs normal peptide", "value": "two times greater"},
      {"measurement": "inhibition of the binding of the PIN to the nNOS", "setting": "[2]", "value": "up to 71%"},
      {"measurement": "IC50", "setting": "[3]; SPR inhibition curves, FIG. 7D, read-out: inhibition constant (Ki: IC50)", "value": 4000, "unit": "nM"},
      {"measurement": "inhibition of the binding of the PIN to the nNOS", "setting": "[3]; peptide 5 μg/ml", "value": 59, "unit": "%"},
      {"measurement": "inhibition of the binding of the PIN to the nNOS", "setting": "[3]; peptide 30 μg/ml", "value": 90, "unit": "%"},
      {"measurement": "inhibition of the binding of the PIN to the nNOS", "setting": "[3]; peptide 40 μg/ml", "value": 91, "unit": "%"}
    ]},
    {"molecule": "B1", "values": [
      {"measurement": "fold affinity against the normal peptide", "setting": "[4]", "value": 2, "unit": "fold"},
      {"measurement": "IC50", "setting": "[5]", "value": 5000, "unit": "nM"},
      {"measurement": "percent inhibition of PIN-nNOS binding", "setting": "[6]", "value": 71, "unit": "%"}
    ]},
    {"molecule": "B2", "values": [
      {"measurement": "IC50", "setting": "[5]", "value": 300000, "unit": "nM"},
      {"measurement": "percent inhibition of PIN-nNOS binding", "setting": "[6]", "value": 14, "unit": "%"}
    ]},
    {"molecule": "IDVGIQVDWD (Synthetic 10-mer)", "note": "[mutant nNOS peptide represented by sequence SEQ ID NO: 4 (Ile-Asp-Val-Gly-Ile-Gln-Val-Asp-Trp-Asp)]", "values": [
      {"measurement": "IC50", "setting": "[7]", "value": 400, "unit": "nM"},
      {"measurement": "IC50", "setting": "[5]", "value": 500, "unit": "nM"},
      {"measurement": "percent inhibition of PIN-nNOS binding", "setting": "[6]", "value": 78, "unit": "%"}
    ]}
  ]
}
